# US8895599B2, “Lipoprotein lipase-activating compositions comprising benzene derivates” (Otsuka Pharmaceutical Factory, Inc., priority 2008, dated 2014)
# Tested on: LPL
# Test: Test for LPL activity-increasing effect in normal rats (skeletal muscle LPL activity)
# Assay type: in vivo
# Settings: every day for 1 week, SD rats, soleus muscle, 4 h after administration
# Procedure: Test for LPL Activity-Increasing Effect in Normal Rats
# 6-week-old SD rats (purchased from Charles River Japan) were used as subjects. The rats were divided into groups according to body weight at the age of 5 weeks. The rats in each test group were orally administered with a 5% gum arabic suspension in an amount of 5 ml/kg of body weight, the suspension containing the test compound of the invention in such an amount that the dose of the compound of the invention became 30 mg/kg of body weight in one group and 100 mg/kg of body weight in another group. The rats in a control group were orally administered with a 5% gum arabic suspension (not containing the test compound of the invention) in an amount of 5 ml/kg of body weight. Each sample suspension was orally administered every day at a specific time of day for 1 week starting when the rats reached the age of 6 weeks.
# Four hours after the administration of the sample suspension, skeletal muscle tissues of the rats were collected, then freeze-clamped and stored under liquid nitrogen. LPL activity in the skeletal muscle tissues was measured by the following method.
# The soleus muscle was homogenized in a chilled solution of 0.05 mol/L NH4OH—NH4Cl buffer (pH 8.5) containing 0.5 U/mL heparin at 1 mL/100 mg of tissue wet weight. After standing on ice for 60 min with vigorous mixing at intervals of 15 min, the homogenate was centrifuged at 3000 rpm and 4° C. for 10 min and the supernatant was separated.
# The substrate solution was prepared by mixing 2 μCi of glycerol tri[1-^14C]oleate, 0.133 g of unlabeled triolein, 0.9 mL of 1% Triton X-100, and 0.9 mL of 4% bovine serum albumin. in 0.2 mol/L Tris-HCl buffer (pH 8.6) and 10.2 mL of 0.2 mol/L Tris-HCl buffer (pH 8.6). The mixture was emulsified by sonication on ice for 3 min.
# In a glass test tube, 0.1 mL of the tissue extract, 0.05 mL of heat-inactivated rat serum and 0.15 mL of 4% bovine serum albumin in 0.2 mol/L Tris-HCl buffer (pH 7.4) were mixed. Enzyme reaction was started by adding 0.2 mL of the substrate solution and was carried out for 30 min. at 37° C.
# The reaction was stopped by addition of 2 mL of 1.5 mol/L H2SO4/2-propanol (1:40, v/v), and 1 mL of distilled water and 3 mL of hexane were added into the test tube. After vigorously shaking for 10 min. at room temperature, the test tube was centrifuged for 10 min. at 3000 rpm.
# The upper layer (3.5 mL) was collected in a new test tube and mixed with 1 mL of 0.1 mol/L KOH.
# The test tube was vigorously shaken for 10 min. at room temperature and then centrifuged for 10 min. at 3000 rpm.
# After removing the upper layer, 1 mL of the lower layer (water phase) was transferred into a vial for counting, neutralized with 50 μL of 1.3 mol/L HCl and mixed with 4 mL of scintillator. The radioactivity was measured using a liquid scintillation counter.
# The LPL activity increase (%) was calculated from the measured values of LPL activity in the control group and test groups according to the following formula: LPL activity increase (%)=(Test group average value)/(Control group average value)×100−100
smiles,measurement,setting,value
COc1cc(-c2cn3ccccc3n2)ccc1OCc1ccc(Cl)cc1 [Example 10],Increase of skeletal muscle LPL activity compared to control (%),30 mg/kg oral,22%
same,Increase of skeletal muscle LPL activity compared to control (%),100 mg/kg oral,55%
